Source: ChEMBL document CHEMBL5465560, “Selectivity Literature for EUbOPEN Chemogenomic Library” (2024)

Columns and labels:
[1] = target: T1, Phosphatidylinositol 4,5-bisphosphate 3-kinase catalytic subunit delta isoform (Homo sapiens) (UniProt O00329); assay: Selectivity interaction (KinomeScan (DiscoverX)) EUB0000595a PIK3CD; settings: at 10 µM
T1 sequence (whole entry): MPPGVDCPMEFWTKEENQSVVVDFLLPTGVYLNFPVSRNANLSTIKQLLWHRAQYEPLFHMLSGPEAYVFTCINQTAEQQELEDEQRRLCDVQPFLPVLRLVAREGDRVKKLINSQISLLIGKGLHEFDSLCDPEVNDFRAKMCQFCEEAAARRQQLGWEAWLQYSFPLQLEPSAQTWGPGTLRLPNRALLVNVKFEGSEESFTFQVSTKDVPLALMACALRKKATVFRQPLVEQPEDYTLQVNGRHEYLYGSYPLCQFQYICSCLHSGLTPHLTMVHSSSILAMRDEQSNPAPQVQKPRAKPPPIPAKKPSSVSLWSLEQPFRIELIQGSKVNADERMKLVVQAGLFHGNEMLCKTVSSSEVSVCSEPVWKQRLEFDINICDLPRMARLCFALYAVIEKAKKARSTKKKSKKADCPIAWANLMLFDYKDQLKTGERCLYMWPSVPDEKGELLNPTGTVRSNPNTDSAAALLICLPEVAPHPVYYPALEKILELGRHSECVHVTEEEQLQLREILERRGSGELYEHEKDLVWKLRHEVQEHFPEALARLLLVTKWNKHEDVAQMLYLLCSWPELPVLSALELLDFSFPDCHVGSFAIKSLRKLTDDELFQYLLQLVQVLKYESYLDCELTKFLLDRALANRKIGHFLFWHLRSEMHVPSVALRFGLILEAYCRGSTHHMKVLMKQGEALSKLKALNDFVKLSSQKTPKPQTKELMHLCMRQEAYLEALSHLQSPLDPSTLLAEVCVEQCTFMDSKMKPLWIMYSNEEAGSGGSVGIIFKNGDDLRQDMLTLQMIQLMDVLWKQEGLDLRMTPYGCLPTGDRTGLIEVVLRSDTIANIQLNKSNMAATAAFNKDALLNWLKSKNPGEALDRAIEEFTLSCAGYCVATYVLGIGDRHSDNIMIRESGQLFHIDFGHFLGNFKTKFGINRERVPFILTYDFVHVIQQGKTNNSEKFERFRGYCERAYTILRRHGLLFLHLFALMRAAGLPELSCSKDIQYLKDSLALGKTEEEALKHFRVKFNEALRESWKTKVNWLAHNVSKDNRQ

[2] = target: T2, Ephrin type-B receptor 6 (Homo sapiens) (UniProt O15197); assay: Selectivity interaction (KinomeScan (DiscoverX)) EUB0000045b EPHB6
T2 sequence (whole entry): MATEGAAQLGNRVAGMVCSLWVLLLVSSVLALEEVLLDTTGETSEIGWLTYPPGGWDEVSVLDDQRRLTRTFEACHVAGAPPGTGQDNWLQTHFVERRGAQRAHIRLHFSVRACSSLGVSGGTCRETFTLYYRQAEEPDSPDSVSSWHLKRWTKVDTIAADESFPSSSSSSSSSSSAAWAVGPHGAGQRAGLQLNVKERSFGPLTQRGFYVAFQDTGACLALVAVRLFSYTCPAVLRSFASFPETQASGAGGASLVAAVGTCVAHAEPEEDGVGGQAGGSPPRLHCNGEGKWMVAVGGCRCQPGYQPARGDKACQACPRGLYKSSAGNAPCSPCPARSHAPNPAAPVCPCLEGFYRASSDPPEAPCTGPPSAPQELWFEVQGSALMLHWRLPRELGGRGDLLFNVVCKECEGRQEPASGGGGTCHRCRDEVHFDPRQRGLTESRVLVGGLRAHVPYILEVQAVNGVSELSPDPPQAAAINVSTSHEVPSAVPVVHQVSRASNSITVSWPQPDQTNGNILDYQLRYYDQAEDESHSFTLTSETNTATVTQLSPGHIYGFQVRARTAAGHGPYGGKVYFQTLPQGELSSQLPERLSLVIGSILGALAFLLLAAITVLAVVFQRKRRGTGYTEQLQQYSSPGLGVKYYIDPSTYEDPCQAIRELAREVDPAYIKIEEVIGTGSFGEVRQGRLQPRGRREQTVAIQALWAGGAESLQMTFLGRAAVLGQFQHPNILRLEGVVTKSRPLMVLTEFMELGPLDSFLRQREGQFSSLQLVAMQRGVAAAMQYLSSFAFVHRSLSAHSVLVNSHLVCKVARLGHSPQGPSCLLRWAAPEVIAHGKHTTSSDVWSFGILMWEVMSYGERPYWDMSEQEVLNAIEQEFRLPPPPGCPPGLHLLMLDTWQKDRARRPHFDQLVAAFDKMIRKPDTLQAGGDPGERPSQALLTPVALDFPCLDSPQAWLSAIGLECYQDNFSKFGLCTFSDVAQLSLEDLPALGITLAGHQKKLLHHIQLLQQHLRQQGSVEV

[3] = target: Protein kinase C eta type (Homo sapiens) (UniProt P24723); assay: Selectivity interaction (KinomeScan (DiscoverX)) EUB0000618a PRKCH; settings: at 10 µM
Chain of Protein kinase C eta type (Homo sapiens) (P24723 whole entry): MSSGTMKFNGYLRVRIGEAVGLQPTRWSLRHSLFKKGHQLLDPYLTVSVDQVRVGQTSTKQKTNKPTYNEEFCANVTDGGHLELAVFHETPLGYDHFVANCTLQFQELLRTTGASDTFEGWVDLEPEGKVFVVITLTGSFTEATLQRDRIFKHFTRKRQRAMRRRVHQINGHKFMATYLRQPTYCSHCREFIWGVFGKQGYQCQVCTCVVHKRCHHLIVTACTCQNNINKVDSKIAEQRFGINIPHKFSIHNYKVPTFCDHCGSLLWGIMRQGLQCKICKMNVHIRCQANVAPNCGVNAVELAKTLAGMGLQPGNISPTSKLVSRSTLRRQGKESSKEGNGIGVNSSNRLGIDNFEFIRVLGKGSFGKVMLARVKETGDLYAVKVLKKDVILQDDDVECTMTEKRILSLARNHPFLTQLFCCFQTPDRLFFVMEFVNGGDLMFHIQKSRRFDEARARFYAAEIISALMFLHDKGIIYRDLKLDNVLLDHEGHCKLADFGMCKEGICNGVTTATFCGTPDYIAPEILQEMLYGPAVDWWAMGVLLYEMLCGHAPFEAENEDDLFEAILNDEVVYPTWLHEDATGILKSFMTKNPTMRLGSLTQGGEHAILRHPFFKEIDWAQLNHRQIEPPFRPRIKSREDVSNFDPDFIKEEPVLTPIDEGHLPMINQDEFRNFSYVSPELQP

[4] = target: Adenosine receptor A2a (Homo sapiens, UniProt P29274); assay: Selectivity interaction (Eurofins CEREP Diversity Profile (receptors and ion channels)) EUB0000279b ADORA2A; settings: at 10 µM
Chain of Adenosine receptor A2a (P29274 whole entry): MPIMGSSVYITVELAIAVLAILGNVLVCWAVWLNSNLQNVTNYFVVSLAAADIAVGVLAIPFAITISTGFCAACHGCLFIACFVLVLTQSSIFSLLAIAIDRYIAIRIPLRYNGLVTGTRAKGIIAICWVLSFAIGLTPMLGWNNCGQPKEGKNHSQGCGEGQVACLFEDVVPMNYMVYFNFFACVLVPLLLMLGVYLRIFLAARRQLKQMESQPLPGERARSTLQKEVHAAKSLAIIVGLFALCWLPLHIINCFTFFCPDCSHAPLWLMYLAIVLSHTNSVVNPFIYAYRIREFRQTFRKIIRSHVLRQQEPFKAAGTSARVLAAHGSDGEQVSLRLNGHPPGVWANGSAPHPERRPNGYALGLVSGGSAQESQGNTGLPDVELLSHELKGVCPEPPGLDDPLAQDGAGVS

[5] = target: T3, Serine/threonine-protein kinase DCLK1 (Homo sapiens) (UniProt O15075); assay: Selectivity interaction (KinomeScan (DiscoverX)) EUB0001619a DCLK1; settings: at 1 µM
T3 sequence (whole entry): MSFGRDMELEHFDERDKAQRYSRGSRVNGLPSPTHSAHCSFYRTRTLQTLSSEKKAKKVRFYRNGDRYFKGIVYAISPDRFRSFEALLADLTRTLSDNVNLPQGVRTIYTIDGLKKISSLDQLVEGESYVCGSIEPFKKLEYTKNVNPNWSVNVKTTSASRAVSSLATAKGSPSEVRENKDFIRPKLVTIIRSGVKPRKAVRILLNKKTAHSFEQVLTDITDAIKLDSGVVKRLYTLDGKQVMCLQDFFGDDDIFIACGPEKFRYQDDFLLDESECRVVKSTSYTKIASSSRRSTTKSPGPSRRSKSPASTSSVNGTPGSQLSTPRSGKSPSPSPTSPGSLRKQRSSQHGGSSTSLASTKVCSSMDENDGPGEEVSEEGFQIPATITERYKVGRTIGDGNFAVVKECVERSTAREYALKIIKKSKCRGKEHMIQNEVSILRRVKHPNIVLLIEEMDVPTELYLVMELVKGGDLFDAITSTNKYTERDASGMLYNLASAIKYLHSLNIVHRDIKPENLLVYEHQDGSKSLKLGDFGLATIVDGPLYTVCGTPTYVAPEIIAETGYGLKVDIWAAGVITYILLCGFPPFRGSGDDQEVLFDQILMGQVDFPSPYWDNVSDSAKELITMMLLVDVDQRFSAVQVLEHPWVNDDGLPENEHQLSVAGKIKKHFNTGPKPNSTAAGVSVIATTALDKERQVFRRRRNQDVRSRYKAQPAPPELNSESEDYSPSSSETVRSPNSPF

Q: For `COCC(=O)NC/C=C/c1ccc2ncnc(Nc3ccc(Oc4ccc(C)nc4)c(C)c3)c2c1` [CP-724714], which % of control [1] is on record?
A: 100%

Q: What does the source list for `C=CC(=O)Nc1cc(-n2c(=O)ccc3cnc4ccc(-c5ccc(NS(C)(=O)=O)cc5)cc4c32)ccc1C`?
A: % of control ([2]; at 1 µM): 90%; % of control ([2]; at 10 µM): 85%

Q: For `O[C@H]1CC[C@H](Nc2ncc3nc(Nc4c(F)cc(F)cc4F)n([C@H]4CCOC4)c3n2)CC1`, which % of control [3] is on record?
A: 96%

Q: `CC(=O)c1cc(-c2ccccc2OCC2CC2)c2ncccn12` was tested. Which % of control [4] did it give?
A: 80%

Q: `N#Cc1cccc(-c2c[nH]c3ncnc(N4CCOCC4)c23)c1` was tested. Which % of control [5] did it give?
A: 100%
